Series [1] has as its system Calvarial osteoblast. Put plainly: Induction of osteoblast differentiation in rat calvarial osteoblast assessed as increase in ALP activity using PNPP as substrate measured after 48 hrs. It is filed as functional, cell-based. The following applies: for EC50: Rattus norvegicus, Calvarial osteoblast, 48 h.
Series [2] relates to Calvarial osteoblast. Put plainly: Cytotoxicity against rat calvarial osteoblast assessed as effect on cell viability at 0.000001 to 100 uM after 48 hrs by MTT assay. It is filed as cell-based. In general terms: Formazan colour is commonly taken as a measure of viable cells.
Series [3] deals with Calvarial osteoblast. Description: Induction of osteoblast differentiation in rat calvarial osteoblast assessed as increase in BMP2 mRNA expression at 0.1 to 10 nM after 48 hrs by SYBR green dye based qRT-PCR analysis relative to control. The series is classed as functional. (In qPCR the cycle at which signal appears reflects the starting amount.)
Series [4] has as its system Calvarial osteoblast. Description: Induction of mineralization in rat calvarial osteoblast at 10 nM supplemented with fresh medium containing compounds every 48 hrs for 21 days by alizarin red-S staining based assay. It is filed as functional, cell-based.
Series [5] concerns Calvarial osteoblast. Description: Induction of osteoblast differentiation in rat calvarial osteoblast assessed as increase in BMP2 mRNA expression at 0.01 to 1 uM after 48 hrs by SYBR green dye based qRT-PCR analysis relative to control. It is filed as functional.
Series [6] deals with Calvarial osteoblast. Put plainly: Induction of mineralization in rat calvarial osteoblast at 1 uM supplemented with fresh medium containing compounds every 48 hrs for 21 days by alizarin red-S staining based assay. It is filed as functional, cell-based.
Series [7] relates to Calvarial osteoblast. Put plainly: Induction of mineralization in rat calvarial osteoblast at 1 pM supplemented with fresh medium containing compounds every 48 hrs for 21 days by alizarin red-S staining based assay. The series is classed as functional, cell-based.
Series [8] has as its system Rattus norvegicus. Description: In vivo induction of osteogenesis in rat assessed as increase in COL1 mRNA expression at 2.5 mg/kg, sc administered daily for 5 days by qRT-PCR analysis. The series is classed as functional, organism-based.
In series [9] the test system is Rattus norvegicus. Put plainly: In vivo induction of osteogenesis in rat assessed as increase in BMP2 mRNA expression at 10 mg/kg, sc administered daily for 5 days by qRT-PCR analysis. The series is classed as functional, organism-based.
The subject of series [10] is Calvarial osteoblast. Description: Induction of osteoblast differentiation in rat calvarial osteoblast assessed as increase in Runx2 mRNA expression at 1 pM after 48 hrs by SYBR green dye based qRT-PCR analysis relative to control. The series is classed as functional.
Series [11] deals with Calvarial osteoblast. Put plainly: Induction of osteoblast differentiation in rat calvarial osteoblast assessed as increase in BMP2 mRNA expression at 1 to 100 pM after 48 hrs by SYBR green dye based qRT-PCR analysis relative to control. It is filed as functional.
Series [12] has as its system Rattus norvegicus. Put plainly: In vivo induction of osteogenesis in rat assessed as increase in COL1 mRNA expression at 10 mg/kg, sc administered daily for 5 days by qRT-PCR analysis. The series is classed as functional, organism-based.
The subject of series [13] is Rattus norvegicus. Description: In vivo induction of osteogenesis in rat assessed as increase in OCN mRNA expression at 10 mg/kg, sc administered daily for 5 days by qRT-PCR analysis. The series is classed as functional, organism-based.
The subject of series [14] is Rattus norvegicus. Description: In vivo induction of osteogenesis in rat assessed as increase in OCN mRNA expression at 5 mg/kg, sc administered daily for 5 days by qRT-PCR analysis. It is filed as functional, organism-based.
Series [15] has as its system Calvarial osteoblast. Put plainly: Induction of osteoblast differentiation in rat calvarial osteoblast assessed as increase in COL1 mRNA expression at 1 pM after 48 hrs by SYBR green dye based qRT-PCR analysis. It is filed as functional, cell-based.
The subject of series [16] is Rattus norvegicus. Put plainly: In vivo induction of osteogenesis in rat assessed as increase in BMP2 mRNA expression at 2.5 mg/kg, sc administered daily for 5 days by qRT-PCR analysis. The series is classed as functional, organism-based.

Calls of active or inactive are those of the source. The rule behind the calls is not given here.

Broadly, the EC50 is the concentration giving half of the maximal effect. On to `CCc1cc(C2C3=C(CCCC3=O)OC3=C2C(=O)CCC3)cc2cc(C(=O)c3ccc(F)cc3)oc12`, for which, in the series on Calvarial osteoblast [1], the “concentration of maximal effect” value amounted to 10 nM and the EC50 is 7.59 nM. Also, the Activity entry in the series with Calvarial osteoblast [2] is given as “Non-Toxic”. The “fold change (FC)” value in the series on Calvarial osteoblast [3] was 2. The outcome in the series with Calvarial osteoblast [4] was Active.
For the compound `CCc1cc(C2C3=C(CC(C)(C)CC3=O)OC3=C2C(=O)CC(C)(C)C3)cc2cc(C(=O)c3ccc(F)cc3)oc12`, in the series on Calvarial osteoblast [1], the “concentration of maximal effect” value stood at 10000 nM and the half-maximal effective concentration (EC50) is 7960 nM. In the series on Calvarial osteoblast [5], the “fold change (FC)” value was 2. The Activity entry in the series on Calvarial osteoblast [2] is given as “Non-Toxic”. Besides, in the series with Calvarial osteoblast [6], the outcome was Active.
Consider `Cc1cc(C2C3=C(CCCC3=O)OC3=C2C(=O)CCC3)cc2cc(C(=O)c3ccc(F)cc3)oc12`, for which the outcome with Calvarial osteoblast [7], in the series with Rattus norvegicus [8], with Rattus norvegicus [9], in the series on Rattus norvegicus [12], with Rattus norvegicus [13] and in the series on Rattus norvegicus [14] was Active. For the same compound, the outcome in the series on Calvarial osteoblast [15] and with Rattus norvegicus [16] was Active. Moreover, the “concentration of maximal effect” value in the series on Calvarial osteoblast [1] is 0.001 nM. In addition, the EC50 in the series on Calvarial osteoblast [1] was determined as 0.000822 nM. Moreover, the “fold change (FC)” value is given as 2 with Calvarial osteoblast [10] and 2.5 in the series with Calvarial osteoblast [11]. For the same compound, the Activity entry with Calvarial osteoblast [2] was “Non-Toxic”.

The record behind these values is ChEMBL document CHEMBL4270542, “Synthesis and study of benzofuran-pyran analogs as BMP-2 targeted osteogenic agents” (Eur J Med Chem, 2018).
